Measured values reported in patent US20260285924A1, “PEPTIDE THERAPEUTICS” (priority 2023, published 2026).

Columns and labels:
[1] = system: A-to-I RNA editing reporter (ADAR) in A375; experiment: A-to-I PepTile (REPTILE) screen: A-to-I editing of dsRNA hairpin reporter by NGS; type: cell-based, human; conditions: for % A-to-I editing (IFNα): IFNα 6000 U/ml for 48 hours; for % A-to-I editing (Basal): no treatment
From the text: (§1) FIGS. 12A-12D. A-to-I PepTile screen. (A) Composition of A-to-I PepTile linrary screen, and schematic description of the lentiviral expression vector. (B) Experimental workflow. A375 cells were transduced at low MOI, and then treated or not with IFNα for 48 hrs. RNA was extracted and Peptide_ADARreporter RNA species were amplified and sequenced by NGS. (C) Dot plot of A-to-I PepTile library effect on A-to-I editing with or without IFNα treatment. Red line is the mean A-to-I editing of all the 8088 peptides (>100 read counts) no treatment: 25.75% IFNα: 37.6%. (D) Dot plot of A-to-I PepTile library fitness effect upon IFNα for 48 hrs.
FIGS. 17A-17F show A-to-I RNA Editing PiTile (REPTILE) screen in A375. (A) A-to-I RNA Editing PiTile (REPTILE) library design consist of fragmentation of all known ADAR1, ADAR2 interactors and all human double stranded RNA-binding protein into 40 amino acid long peptide. This library was then cloned into a lentivirus vector that also encode a DNA-encoded RNA loop reporter (A-to-I Rep) that is edited by ADAR proteins in cells at the RNA level. When the construct is expressed, the RNA loop gets edited on a single Adenosine, while the 40-mer peptide get expressed at the protein level. Then we can measure the impact of the peptide expression on the editing rate of the RNA loop reporter by sequencing (NGS and Sanger). (B) Experimental workflow of REPTILE screen in A375 cell line. Cells were transduced with the REPTILE library, and then treated for 48 hours with IFNα. Following the treatment, RNA was harvested, converted into cDNA and amplicon library containing peptide Identity (barcode) linked to the RNA loop reporter were prepared for NGS. (C) Result of the A375 REPTILE screen in the no treatment condition. Each dot represents a unique peptide that is associated with an A-to-I editing rate that was measured on the RNA loop. (D) Result of the A375 REPTILE screen in the IFNα condition. Each dot represents a unique peptide that is associated with an A-to-I editing rate that was measured on the RNA loop. Red line represent the A-to-I editing mean, Dash blue line represent 2 times the standard deviation of the % A-to-I editing across all the datasets. This cutoff was used to defined peptides hits that modulate RNA A-to-I editing. (E) Peptide A-to-I Inhibitor Hits intersection between no treatment (% A-to-I editing<15%) and IFNα (% A-to-I editing<27%) conditions. (F) Peptide A-to-I Enhancers Hits intersection between no treatment (% A-to-I editing>36%) and IFNα (% A-to-I editing>47%) conditions.
Provided herein is a screening methodology to measure the effect of small peptide on A-to-I RNA editing in situ and screen thousands of peptides in a single experiment. First, a library of peptides with the potential of impairing A-to-I editing was designed and built. ADAR enzymes edit RNA only on double-stranded RNA structures and via ADAR's double stranded RNA-Binding Domain (dsRBD). […] The A-to-I PepTile library is composed of 19 Human proteins having dsRBD and 34 known protein-protein interactors of ADAR1/2. All these proteins were tiled into 40-mer peptides every 4 amino acids (FIG. 12A). To measure A-to-I editing, a biosensor consisting of a 71 bp dsRNA hairpin structure that gets A-to-I edited at a rate of 25% in A375 melanoma cells, and ~37% upon IFNα treatment was used. This A-to-I editing reporter is fused with DNA sequence encoding for a peptide from the A-to-I PepTile library. The A-to-I PepTile plasmid pool (10304 elements) was used to produced lentiviruses and transduced A375 cells at a low multiplicity of infection (MOI) (FIG. 12B). A part of the infected cells was treated with IFNα at 6000 U/ml for 48 hours, and then bulk RNA of the basal and treated condition was harvested. RNA was then retrotranscribed into cDNA and sequenced by Next-Generation Sequencing (NGS). […]

[2] = system: A375 cells; experiment: A-to-I PepTile screen: fitness effect upon IFNα (PepTile abundance untreated vs treated); type: cell-based, human
From the text: as §1
Provided herein is a screening methodology to measure the effect of small peptide on A-to-I RNA editing in situ and screen thousands of peptides in a single experiment. First, a library of peptides with the potential of impairing A-to-I editing was designed and built. ADAR enzymes edit RNA only on double-stranded RNA structures and via ADAR's double stranded RNA-Binding Domain (dsRBD). […] The A-to-I PepTile library is composed of 19 Human proteins having dsRBD and 34 known protein-protein interactors of ADAR1/2. All these proteins were tiled into 40-mer peptides every 4 amino acids (FIG. 12A). To measure A-to-I editing, a biosensor consisting of a 71 bp dsRNA hairpin structure that gets A-to-I edited at a rate of 25% in A375 melanoma cells, and ~37% upon IFNα treatment was used. This A-to-I editing reporter is fused with DNA sequence encoding for a peptide from the A-to-I PepTile library. The A-to-I PepTile plasmid pool (10304 elements) was used to produced lentiviruses and transduced A375 cells at a low multiplicity of infection (MOI) (FIG. 12B). A part of the infected cells was treated with IFNα at 6000 U/ml for 48 hours, and then bulk RNA of the basal and treated condition was harvested. RNA was then retrotranscribed into cDNA and sequenced by Next-Generation Sequencing (NGS). With the sequencing data, the A-to-I editing percentage of the RNA reporter for each PepTile is calculated since both elements are encoded on the same transcript. Moreover, with this screen one can also measure the abundance of the PepTiles between the untreated and treated conditions and determine Fitness score associated to every PepTile. To ensure a robust and more accurate A-to-I editing % estimation a cut-off of 100 read counts was set for each PepTile. […] SEQ ID NOs: 2125-2147 are A-to-I peptide inhibitors and SEQ ID NOs: 2148-2210 are A-to-I activators. In addition, 117 PepTiles were identified that either synergize (SEQ ID NOs: 2211-2243) or protect (SEQ ID NOs: 2244-2327) to IFNα-induced cell death (FIG. 12D and Table 5). These PepTiles are potential new therapeutic agents that can modulate the Interferon pathway. They may be beneficial in treating inflammatory conditions and may also enhance the effectiveness of cancer immunotherapy through synergistic effects.

[3] = IFNα 6000 U/ml for 48 hours vs untreated

Sequence | % A-to-I editing (IFNα) [1] [%] | % A-to-I editing (Basal) [1] [%] | Fitness Score IFNα [2, 3] | Fitness Score IFNα ([2]; A375, PepTile abundance upon IFNα treatment, negative = synthetic lethal, positive = protector)
MAGPLGPGDAVRRVLECVATGTLLTDGPGLQDPCERDQTDA [ZFR2_207] | 51.31 | 45.30 | 1.51 | –
MAPVAAHTVTAAYAPAAATVAVARPAPVAVAAAATAAAYGG [ZFR_18] | 49.47 | 37.25 | 1.04 | –
MASLQISPQPRPWRPLPAQAQSAWGPAPAPATYRAEGGWPQ [ADAD2_6] | 48.57 | 40.89 | 3.12 | 3.12
MAVEITGAGPGASSVCNSAPGSGPSSPNSSHSTIAENGFTG [HDAC5_75] | 55.71 | 40.79 | 0.76 | –
MAVRRVLECVATGTLLTDGPGLQDPCERDQTDALEPMTLQE [ZFR2_209] | 50.31 | 39.66 | 0.22 | –
MCLSSHFQELSIYQDQEQRILKFLEELGEGKATTAHDLSGK [ADAR_32] | 48.60 | 38.66 | -0.47 | –
MCSFNDPNAKEMHLKGRRHRLQYKKKVNPDLQVEVKPSIRA [ZFR_148] | 48.58 | 37.77 | -1.00 | –
MCYYVFGDLSGGCESYLVNLSLNDNDGSSGASDQDTLAPLP [DVL2_126] | 54.28 | 43.60 | 0.54 | –
MDTLDPELFVECTECGRKMHQICVLHHEIIWPAGFVCDGCL [EP300_310] | 26.86 | 14.29 | -1.83 | –
MDTVISLLTGLSDSQVRAFRHTSTLAAMKLMTALVNVALNL [STAG1_51] | 80.32 | 74.10 | -0.15 | –
MECMHKLGNSCEFRLLSKEGPAHEPKFQYCVAVGAQTFPSV [ADAR_156] | 20.83 | 13.60 | 0.35 | –
MEPAKGGEKLQIKKTVSFHLYISTAPCGDGALFDKSCSDRA [ADAR_236] | 55.48 | 39.57 | -1.07 | –
MESTIVEPKQNENRLSDTKPNDNKQNNGRSETTKSRPETPK [NIPBL_167] | 52.90 | 39.35 | 1.11 | –
METVSSNSSNNTGNSTTETSSTLEVRTQGPILTASGKNPVM [STRBP_120] | 22.73 | 10.91 | 0.07 | –
MFKKRAVEITGAGPGASSVCNSAPGSGPSSPNSSHSTIAEN [HDAC5_74] | 55.72 | 38.94 | 0.29 | –
